These are literature values, as cited in patent publication US20100055178A1, “ENTERIC-COATED CREATINE COMPOSITIONS AND METHODS OF USE THEREOF” (priority 2008, published 2010).

The conditions of series [1]: acidic solutions, pH 3-6.
The conditions of series [2]: 5 grams, 4-6 times a day, for two or more days, oral.

In the case of `CN(CC(=O)O)C(=N)N` [creatine], in series [1], the “rate of conversion of creatine to creatinine” value is listed as “almost instantaneous”. For the same molecule, the total creatine concentration entry in series [2] was “significant increase”.
